{"source": "patent US20130123326A1", "about": "“ALLOSTERIC BINDING COMPOUNDS” (REGION MIDTJYLLAND, priority 2009, published 2013)", "key": {"[1]": {"target": "T1, hSERT (Homo sapiens, UniProt P31645)", "T1 sequence (P31645 whole entry)": "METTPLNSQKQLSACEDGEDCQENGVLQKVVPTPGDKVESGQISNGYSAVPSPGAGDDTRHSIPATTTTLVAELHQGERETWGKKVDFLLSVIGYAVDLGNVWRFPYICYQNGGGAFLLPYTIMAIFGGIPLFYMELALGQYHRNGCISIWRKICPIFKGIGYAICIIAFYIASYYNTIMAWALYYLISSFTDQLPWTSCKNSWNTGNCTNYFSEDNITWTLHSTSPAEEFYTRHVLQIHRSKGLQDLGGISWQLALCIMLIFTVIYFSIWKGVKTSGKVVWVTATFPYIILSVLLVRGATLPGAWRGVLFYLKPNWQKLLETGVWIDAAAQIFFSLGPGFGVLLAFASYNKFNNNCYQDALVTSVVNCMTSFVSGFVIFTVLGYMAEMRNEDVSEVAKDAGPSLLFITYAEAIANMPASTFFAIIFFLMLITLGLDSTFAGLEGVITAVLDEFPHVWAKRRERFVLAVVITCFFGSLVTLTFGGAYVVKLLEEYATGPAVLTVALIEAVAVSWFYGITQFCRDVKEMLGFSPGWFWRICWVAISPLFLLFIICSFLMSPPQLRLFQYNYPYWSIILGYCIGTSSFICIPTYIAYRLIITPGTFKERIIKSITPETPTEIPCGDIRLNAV", "test": "5-HT uptake inhibition assay: allo-ligand potentiating effect on uptake inhibition by S-citalopram", "type": "cell-based", "settings": "[3H]5-HT uptake, hSERT-transfected HEK-293-MSR cells; allosteric ligand in the 600 nM range", "procedure": "Cell lines expressing the serotonin transporter constitute the most popular in vitro screening system for classical antidepressants, which will inhibit the transporter in uptake of serotonin. The inhibitory potency of the allosteric ligands is determined and expressed as an IC50 value in that a lowering of the IC50 values, when the concentration of the allosteric ligands increases, indicates an add-on inhibitory effect due to the presence of the allosteric ligand.\nTransfection of HEK-293-MSR Cell Cultures\nFor transfections, 0.2 μg of pcDNA3 plasmid vector containing a hSERT cDNA insert and 0.4 μl of Fugene6 (Roche) were used per cm2 of plating area. Plasmid and Fugene6 were mixed with DMEM according to the manufacturer's recommendations. HEK-293-MSR cells were treated with trypsin, suspended in growth media and added to the Plasmid/Fugene6 mixture. Transfected cells were dispensed into white 96-well growth plates (Corning) or 150 mm cell culture discs at 60-80% confluence.\n5-HT Uptake Inhibition Assays\nUptake assays were performed 40-50 hours after transfection. […] Cells were lysed in 50 μl MicroScint-20 (Packard), and the radiolabeled serotonin accumulated in the cells was quantified in a Packard TopCounter NXT microplate scintillation counter. Exact [^3H]5-HT reaction concentrations were determined in a Packard TRI-CARB® Liquid scintillation analyzer. […]"}, "[2]": {"target": "T1, hSERT", "test": "Dissociation assay with [3H]-citalopram and hSERT membrane preparations", "type": "binding", "procedure": "Dulbecco's modified Eagle's medium, fetal bovine serum, trypsin, and penicillin/streptomycin were purchased from Invitrogen. Cell culture flasks were from NUNC. MicroScint-20 scintillation mixture was from Packard. [^3H]-Citalopram (85 Ci/mmol) was a gift from H. Lundbeck A/S (Valby, Denmark). Fugene-6 transfection reagent was from Roche Molecular Biochemicals. All chemicals are commercially available. Stock solutions of the allosteric ligands were prepared as 100 mM in EtOH.\nThe pcDNA3 plasmid vector containing the hSERT gene was used for transfection.\n17.5 μl Fugene-6 (Roche Molecular Biochemicals) were mixed with 280 μl Dulbecco's modified Eagle's medium, and incubated at room temperature for 5 minutes. 10 μg of hSERT plasmid were added and the mixture was further incubated at least 15 minutes. […] The cells were plated at 35% confluency in a 150 mm dish, and grown at 37° C. for 64 h. Prior to harvesting the dish was rinsed in PBS. Cells were harvested with a cell scraper in buffer 1 (50 mM Tris-base, 150 mM NaCl, 20 mM EDTA, pH 7.4). After centrifugation (3000 g at 4° C. for 10 mins), cells were suspended and homogenized with an IKA Ultra-Turrax from Rose Scientific Ltd (Edmonton, Alberta, Canada) for 20 s in buffer 1. Membranes were pelleted by ultracentrifugation (12 000 g at 4° C. for 15 min) and homogenization was repeated in buffer 1. Finally, after ultracentrifugation (12000 g, 4° C., 15 min) membranes were resuspended in 1 ml buffer 3 (50 mM Tris-base, 120 mM NaCl, 5 mM KCl, pH 7.4) and stored at −80° C.\nDissociation Assay with [^3H]-Citalopram and Membrane Preparations.\nSERT-[^3H]-citalopram complex was formed by incubating hSERT membrane preparation and radioligand in buffer 3 during a 60 min incubation at 4° C. Radioligand was present at a concentration 10 times the Kd value. The time kinetic of dissociation was followed by adding 10 μL complex solution to 250 μL buffer 3 in 96-well plates and incubating subsequently for increasing time intervals at RT. Reactions were terminated by filtration through GF/C glass-fibre filters (Unifilter, Perkin Elmer Life Sciences), preincubated with 40 μl 0.5% polyethyleneimine, using a Pachard Bell cell harvester, and subsequently washed three times with water. Filters were soaked in 40 μl Microscint 20 scintillation liquid (Pachard Bell). Bound radioactivity was determined by direct counting of plates using a Packard Bell microplate scintillation counter. Dissociation curves were obtained by plotting residual binding vs. time of dissociation.\nThe concentrations of allosteric compound in the dissociation buffer range from 400-0.2 μM.\nThe relative off-rate is expressed as the off-rate of the radioligand at a given concentration of allosteric compound, normalized to the off-rate of radioligand in the absence of allosteric compound.\nThe maximum stabilization factor is defined as the estimated upper plateau of the sigmoidal response curve, and describes how many folds the off-rate of bound radioligand from SERT can be attenuated in the presence of increasing concentrations of allosteric compound in the dissociation buffer."}}, "data": [{"molecule": "N#CCSc1cccc2ccccc12", "note": "[Example 36, (Naphthalen-1-Ylsulfanyl)-Acetonitrile]", "values": [{"measurement": "reduction of S-citalopram IC50 values (add-on effect)", "setting": "[1]", "value": "up to 2 fold"}, {"measurement": "EC50", "setting": "[2]; concentration of allosteric compound inducing 50% attenuation of the off-rate of the radioligand from SERT, 10 μM fluoxetine in dissociation buffer, read-out: EC50", "value": 0.7, "unit": "µM"}, {"measurement": "Max. Stability (maximum stabilization factor)", "setting": "[2]; estimated upper plateau of sigmoidal response curve: how many folds the off-rate of bound radioligand from SERT can be attenuated, N/A = No activity", "value": 27}]}]}
